Assays:
[1] = target: T1, 3-oxo-5-alpha-steroid 4-dehydrogenase 1 (Homo sapiens) (UniProt P18405); assay: Inhibition of steroid 5-alpha reductase type 1 expressed in HEK 293 cells at 10 uM; type: cell-based; settings: HEK293
T1 sequence (whole entry): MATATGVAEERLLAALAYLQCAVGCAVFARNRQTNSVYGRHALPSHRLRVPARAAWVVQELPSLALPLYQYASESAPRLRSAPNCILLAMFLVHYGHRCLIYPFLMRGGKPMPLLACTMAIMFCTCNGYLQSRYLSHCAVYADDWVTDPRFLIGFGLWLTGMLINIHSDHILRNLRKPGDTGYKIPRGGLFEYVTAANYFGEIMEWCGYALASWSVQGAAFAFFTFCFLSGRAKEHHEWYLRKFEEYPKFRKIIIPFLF

[2] = target: T2, 3-oxo-5-alpha-steroid 4-dehydrogenase 2 (Homo sapiens) (UniProt P31213); assay: Inhibition of steroid 5-alpha reductase type 2 expressed in HEK 293 cells at 10 uM; type: cell-based; settings: HEK293
T2 sequence (whole entry): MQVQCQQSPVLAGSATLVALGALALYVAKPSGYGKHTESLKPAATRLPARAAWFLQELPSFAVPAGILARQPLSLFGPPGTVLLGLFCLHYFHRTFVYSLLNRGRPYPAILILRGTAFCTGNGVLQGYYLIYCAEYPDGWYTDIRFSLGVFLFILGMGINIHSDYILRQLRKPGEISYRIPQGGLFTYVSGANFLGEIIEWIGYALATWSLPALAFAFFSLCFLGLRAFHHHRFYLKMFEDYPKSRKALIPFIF

[3] = target: T3, 3-oxo-5-alpha-steroid 4-dehydrogenase 1 (Homo sapiens, UniProt P18405); assay: Inhibition of steroid 5-alpha reductase type 1 expressed in HEK 293 cells; type: cell-based, HEK293
T3 sequence (P18405 whole entry): T1 sequence (whole entry)

[4] = target: T4, 3-oxo-5-alpha-steroid 4-dehydrogenase 2 (Homo sapiens, UniProt P31213); assay: Inhibition of steroid 5-alpha reductase type 2 expressed in HEK 293 cells; type: cell-based, HEK293
T4 sequence (P31213 whole entry): T2 sequence (whole entry)

inhibition [1] [%] | Compound | other results
3 | CC1CC(=O)C=CN1c1ccc(OCC(=O)N(C(C)C)C(C)C)cc1 (stereo unspecified) | –
33 | CC(=O)SCCCCCCCCCCCCCCCC(=O)NCCOCCOC(=O)CC/C=C/CNC(=O)COc1ccc(-c2ccc(=O)n(C)c2)cc1 | –
8 | C=CCNC(=O)COc1ccc(N2C=CC(=O)CC2C)cc1 (stereo unspecified) | inhibition [2]: 12%
6 | C=CCNC(=O)COc1ccc(-c2ccc(=O)n(C)c2)cc1 | –
– | CC(C)(C)NC(=O)[C@H]1CC[C@H]2[C@@H]3CC[C@H]4NC(=O)C=C[C@]4(C)[C@H]3CC[C@]12C [FINASTERIDE] | IC50 [3]: 453 nM; IC50 [4]: 25 nM
8 | CC(C)NC(=O)COc1ccc(-c2ccc(=O)n(C)c2)cc1 | –
6 | CC(C)N(C(=O)COc1ccc(C2CCC(=O)N(C)C2)cc1)C(C)C (stereo unspecified) | –
61 | Cn1cc(-c2ccc(C(=O)Cc3ccccc3)cc2)ccc1=O | –
43 | CC(=O)SCCCCCCCCCCCCCCCC(=O)NCCOC(=O)CC/C=C/CNC(=O)COc1ccc(-c2ccc(=O)n(C)c2)cc1 | –

Source: ChEMBL document CHEMBL1148877, “Evaluation of 4'-substituted bicyclic pyridones as non-steroidal inhibitors of steroid 5alpha-reductase” (Bioorg Med Chem Lett, 2007)
